Patent US7312333B2, “Retroviral protease inhibitors” (Pharmacia Corporation, priority 1992, dated 2007)
Read-outs that look alike come from different tables or passages of the source.

Key:
[1] = target: T1, HIV protease (Human immunodeficiency virus type 1 group M subtype B, UniProt P04585); assay: HIV protease enzyme assay (fluorogenic substrate 2-aminobenzoyl-Ile-Nle-Phe(p-NO2)-Gln-ArgNH2); assay type: biochemical; conditions: for inhibition at 10 µM: at a concentration of 10 micromolar
T1 construct: HIV protease is diluted in the assay buffer to a final enzyme concentration of 12.3 nanomolar, based on a molecular weight of 10,780
Description: The compounds of the present invention are effective HIV protease inhibitors. […] The calculated IC50 (inhibiting concentration 50%, i.e., the concentration at which the inhibitor compound reduces enzyme activity by 50%) values are shown in Table 1. The enzyme method is described below. The substrate is 2-aminobenzoyl-Ile-Nle-Phe(p-NO2)-Gln-ArgNH2. The positive control is MVT-101 (Miller, M. et al, Science, 246, 1149 (1989)] The assay conditions are as follows:
Assay buffer: 20 mM sodium phosphate, pH 6.4
The above described substrate is dissolved in DMSO, then diluted 10 fold in assay buffer. Final substrate concentration in the assay is 80 μM.
HIV protease is diluted in the assay buffer to a final enzyme concentration of 12.3 nanomolar, based on a molecular weight of 10,780.
The final concentration of DMSO is 14% and the final concentration of glycerol is 18%. The test compound is dissolved in DMSO and diluted in DMSO to 10× the test concentration; 10 μL of the enzyme preparation is added, the materials mixed and then the mixture is incubated at ambient temperature for 15 minutes. The enzyme reaction is initiated by the addition of 40 μL of substrate. The increase in fluorescence is monitored at 4 time points (0, 8, 16 and 24 minutes) at ambient temperature. Each assay is carried out in duplicate wells.

[2] = system: HIV-1; assay: CEM cell assay: HIV inhibition in acutely infected cells (MTT colorimetric); assay type: cell-based; conditions: HIV-1 infected CEM cells, 7 days, concentration reducing cytopathicity by 50%, read-out: Antiviral Activity in Cell Culture (EC50)
Description: (§1) The effectiveness of the compounds tested in Part A was also determined in a CEM cell assay. The HIV inhibition assay method of acutely infected cells is an automated tetrazolium based colorimetric assay essentially that reported by Pauwles et al, J. Virol. Methods 20, 309-321 (1988). Assays were performed in 96-well tissue culture plates. CEM cells, a CD4^+ cell line, were grown in RPMI-1640 medium (Gibco) supplemented with a 10% fetal-calf serum and were then treated with polybrene (2 μg/mL). An 80 μL volume of medium containing 1×10^4 cells was dispensed into each well of the tissue culture plate. To each well was added a 100 μL volume of test compound dissolved in tissue culture medium (or medium without test compound as a control) to achieve the desired final concentration and the cells were incubated at 37° C. For 1 hour. A frozen culture of HIV-1 was diluted in culture medium to a concentration of 5×10^4 TCID50 per mL (TCID50=the dose of virus that infects 50% of cells in tissue culture), and a 20 μL volume of the virus sample (containing 1000 TCID50 of virus) was added to wells containing test compound and to wells containing only medium (infected control cells). Several wells received culture medium without virus (uninfected control cells). Likewise, the intrinsic toxicity of the test compound was determined by adding medium without virus to several wells containing test compound. In summary, the tissue culture plates contained the following experiments:
(§2) In experiments 2 and 4, the final concentrations of test compounds were 1, 10, 100 and 500 μg/mL. Either azidothymidine (AZT) or dideoxyinosine (ddI) was included as a positive drug control. […] DMSO was added to all control wells at an appropriate concentration.
(§3) Following the addition of virus, cells were incubated at 37° C. in a humidified, 5% CO2 atmosphere for 7 days. Test compounds could be added on days 0, 2 and 5 if desired. On day 7, post-infection, the cells in each well were resuspended and a 100 μL sample of each cell suspension was removed for assay. A 20 μL volume of a 5 mg/mL solution of 3-(4,5-dimethylthiazol-2-yl)-2,5-diphenyltetrazolium bromide (MTT) was added to each 100 μL cell suspension, and the cells were incubated for 4 hours at […] in a 5% CO2 environment. […] To each sample was added 100 μL of 10% sodium dodecylsulfate in 0.01 N HCl to lyse the cells, and samples were incubated overnight. The absorbance at 590 nm was determined for each sample using a Molecular Devices microplate reader. Absorbance values for each set of wells is compared to assess viral control infection, uninfected control cell response as well as test compound by cytotoxicity and antiviral efficacy.
(§4) The calculated EC^50 (effective concentration 50%, i.e., the concentration at which the inhibitor compound reduces cytopathicity by 50%) and TD^50 (toxic dose 50%, i.e., the concentration at which the inhibitor compound reduces cellular viability by 50%) values for these compounds are also shown in Table 1.

[3] = CEM cell assay: intrinsic toxicity of test compound in uninfected cells (MTT); assay type: cell-based; conditions: human, uninfected CEM cells (CD4+ cell line); CEM cells without virus, 7 days, concentration reducing cellular viability by 50% (TD50)
Description: as §1, §2, §3, §4

[4] = system: CEM cells; assay: as above; assay type: cell-based
Description: as §1, §2, §3, §4

[5] = substrate 80 μM, HIV protease 12.3 nanomolar, pH 6.4, ambient temperature, read-out: Enzyme Inhibition (IC50)
[6] = Human immunodeficiency virus 1, CCRF-CEM, 168 h

Compound | inhibition at 10 µM [1] [%] | IC50 [1, 5] [nM] | EC50 [2, 6] [nM] | IC50 at 7 days [3] [nM] | further results
COc1ccc(COC(=O)NC[C@@H](C)C(=O)N[C@@H](Cc2ccccc2)[C@H](O)CN2C[C@H]3CCCC[C@H]3C[C@H]2C(=O)NC(C)(C)C)cc1 (relative stereo) [Example 4, carbamic acid, [3-[[3-[3-[[(1,1-dimethylethyl)-amino]carbonyl]octahydro-2(1H)-isoquinolinyl]-2-hydroxy-1-(phenyl-methyl)propyl]amino]-2-methyl-3-oxopropyl]-,(4-methoxyphenyl)methylester,[3S-[2[1R*(S*),2S*], 3α,4aβ,8aβ]]] | 3 to 100 |  |  |  | 
C[C@@H](C(=O)N[C@@H](Cc1ccccc1)[C@H](O)CN1C[C@H]2CCCC[C@H]2C[C@H]1C(=O)NC(C)(C)C)C(C)(C)C(=O)O [Example 12C, butanoic acid, 4-[[3-[3-[[(1,1-dimethylethyl)amino]carbonyl]octahydro-2(1H)-isoquinolinyl]-2-hydroxy-1-(phenylmethyl)propyl]amino]-2,2,3-trimethyl-4-oxo-, [3S-[2[1R*(S*),2S*], 3α,4aβ, 8aβ]]-] | 3 to 100 |  |  |  | 
C[C@@H](C(=O)N[C@@H](Cc1ccccc1)[C@H](O)CN1C[C@H]2CCCC[C@H]2C[C@H]1C(=O)NC(C)(C)C)C(C)(C)C(N)=O [Example 12, Butanamide, 4-[[3-[3-[[(1,1-dimethylethyl)-amino]carbonyl]octahydro-2 (1H)-isoquinolinyl]-2-hydroxy-1-(phenylmethyl)propyl]amino]-2,2,3-trimethyl-4-oxo-, [3S-[2[1R*(S*),2S*], 3α, 4aβ, 8 aβ]]] | 3 to 100 |  |  |  | 
C[C@@H](C(=O)N[C@@H](Cc1ccccc1)[C@H](O)CN1C[C@H]2CCCC[C@H]2C[C@H]1C(=O)NC(C)(C)C)C(C)(C)C(N)=O (relative stereo) [Example 12, Butanamide, 4-[[3-[3-[[(1,1-dimethylethyl)-amino]carbonyl]octahydro-2 (1H)-isoquinolinyl]-2-hydroxy-1-(phenylmethyl)propyl]amino]-2,2,3-trimethyl-4-oxo-, [3S-[2[1R*(S*),2S*], 3α, 4aβ, 8 aβ]]] |  | 9 | 98 | 59000 | 
CC(C)(C)NC(=O)[C@@H]1C[C@@H]2CCCC[C@@H]2CN1C[C@@H](O)[C@H](Cc1ccccc1)NC(=O)C[C@H](NC(=O)c1ccc2ccccc2n1)C(N)=O (relative stereo) [Example 10, butanediamide, N^4-[3-[3-[[(1,1-dimethylethyl)-amino]carbonyl]octahydro-2(1H)-isoquinolinyl]-2-hydroxy-1-(phenyl-methyl)propyl]-2-[(2-quinolinylcarbonyl)amino]-, [3S[2[1R*(R*),2S*], 3α,4aβ,8aβ]]] | 3 to 100 |  | 37 | 5000 | IC50 [1]: 9 nM
3-Isoquinolinecarboxamide, N-(1,1-dimethylethyl)decahydro-2-[2-hydroxy-3-[[2-methyl-3-(methylsulfonyl)-1-oxopropyl]amino]-4-phenylbutyl]-, [3S-[2[2S*,3R*(R*)], 3α,4aβ,8aβ]] [Example 6] |  | 2 |  |  | EC50 [2]: 52 nM; IC50 ([4]; CEM cells without virus, 7 days, concentration reducing cellular viability by 50% (TD50), read-out: Cell Toxicity (IC50)): 2000 nM
C[C@H](CS(C)(=O)=O)C(=O)N[C@@H](Cc1ccccc1)[C@H](O)CN1C[C@H]2CCCC[C@H]2C[C@H]1C(=O)NC(C)(C)C (relative stereo) [Example 6, 3-Isoquinolinecarboxamide, N-(1,1-dimethylethyl)decahydro-2-[2-hydroxy-3-[[2-methyl-3-(methylsulfonyl)-1-oxopropyl]amino]-4-phenylbutyl]-, [3S-[2[2S*,3R*(R*)], 3α,4aβ,8aβ]]] | 3 to 100 |  |  |  | 
COc1ccc(COC(=O)NCC(C)C(=O)NC(Cc2ccccc2)C(O)CN2CC3CCCCC3CC2C(=O)NC(C)(C)C)cc1 (stereo not drawn) [Example 4, carbamic acid, [3-[[3-[3-[[(1,1-dimethylethyl)-amino]carbonyl]octahydro-2(1H)-isoquinolinyl]-2-hydroxy-1-(phenyl-methyl)propyl]amino]-2-methyl-3-oxopropyl]-,(4-methoxyphenyl)methylester,[3S-[2[1R*(S*),2S*], 3α,4aβ,8aβ]]] |  | 7 |  |  | EC50 [2]: 42 nM; IC50 [4]: 58000 nM
C[C@@H](C(=O)N[C@@H](Cc1ccccc1)[C@H](O)CN1C[C@H]2CCCC[C@H]2C[C@H]1C(=O)NC(C)(C)C)C(C)(C)C(=O)O (relative stereo) [Example 12C, butanoic acid, 4-[[3-[3-[[(1,1-dimethylethyl)amino]carbonyl]octahydro-2(1H)-isoquinolinyl]-2-hydroxy-1-(phenylmethyl)propyl]amino]-2,2,3-trimethyl-4-oxo-, [3S-[2[1R*(S*),2S*], 3α,4aβ, 8aβ]]-] |  | 23 | 184 | 50000 | 
